Drawing on patent publication US12077503B2, “Substituted cyclic amides and their use as herbicides” (FMC CORPORATION, priority 2015, dated 2024), this text covers pest or weed control and plant injury for seven molecules.

What all share (test): Test G Pre-Emergence Protocol
Holding throughout (type): in vivo

The test system of experiment [1] is redroot pigweed (Amaranthus retroflexus). The note with it: Amaranthus retroflexus, pre-emergence, 312 h, evaluated after 13 days; for pest or weed control at 15.625 g/ha: 15.625 g ai/ha; for pest or weed control at 15.625 g/ha / pest or weed control at 250 g/ha: read-out: Pigweed, Redroot damage rating (100=total damage to plant; 0=no damage to plant); for pest or weed control at 62.5 g/ha: 62.5 g ai/ha, 100=total damage to plant, 0=no damage to plant, read-out: plant damage rating, Pigweed, Redroot; for pest or weed control at 250 g/ha: 250 g ai/ha. An outline of the steps:
(§1)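 Test compound in 0.5% Tween 20 acetone/water (50:50) was applied at three rates (15.625, 62.5, 250 g/ha) to soil sown one day earlier. After 13 days plants were scored for injury, where 0 means unaffected and 100 means completely damaged.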

The subject of experiment [2] is barnyardgrass (Echinochloa crus-galli). Conditions: Echinochloa crus-galli, pre-emergence, 312 h, evaluated after 13 days; for pest or weed control at 15.625 g/ha: 15.625 g ai/ha, read-out: Barnyard grass damage rating (100=total damage to plant; 0=no damage to plant); for pest or weed control at 62.5 g/ha: 62.5 g ai/ha, 100=total damage to plant, 0=no damage to plant, read-out: plant damage rating, Barnyardgrass; for pest or weed control at 250 g/ha: 250 g ai/ha, read-out: Barnyardgrass damage rating (100=total damage to plant; 0=no damage to plant). An outline of the steps: as §1

Experiment [3] concerns ivy-leaved morning glory (Ipomoea hederacea). The note with it: Ipomoea, pre-emergence, 312 h, evaluated after 13 days; for pest or weed control at 15.625 g/ha: 15.625 g ai/ha, read-out: Morning-glory, Ivy-leaved damage rating (100=total damage to plant; 0=no damage to plant); for pest or weed control at 62.5 g/ha: 62.5 g ai/ha, 100=total damage to plant, 0=no damage to plant, read-out: plant damage rating, Morningglory, Ivy-leaved; for pest or weed control at 250 g/ha: 250 g ai/ha, read-out: Morningglory, Ivy-leaved damage rating (100=total damage to plant; 0=no damage to plant). An outline of the steps: as §1

Experiment [4] has as its system giant foxtail (Setaria faberi). The note with it: Setaria faberi, pre-emergence, 312 h, evaluated after 13 days; for pest or weed control at 15.625 g/ha: 15.625 g ai/ha; for pest or weed control at 15.625 g/ha / pest or weed control at 250 g/ha: read-out: Foxtail, Giant damage rating (100=total damage to plant; 0=no damage to plant); for pest or weed control at 62.5 g/ha: 62.5 g ai/ha, 100=total damage to plant, 0=no damage to plant, read-out: plant damage rating, Foxtail, Giant; for pest or weed control at 250 g/ha: 250 g ai/ha. An outline of the steps: as §1

The next experiment concerns corn (Zea mays). The note with it: Zea mays, pre-emergence, 312 h, evaluated after 13 days; for plant injury at 15.625 g/ha: 15.625 g ai/ha; for plant injury at 15.625 g/ha / plant injury at 250 g/ha: read-out: Corn damage rating (100=total damage to plant; 0=no damage to plant); for plant injury at 62.5 g/ha: 62.5 g ai/ha, 100=total damage to plant, 0=no damage to plant, read-out: plant damage rating, Corn; for plant injury at 250 g/ha: 250 g ai/ha. An outline of the steps: as §1

The subject of experiment [5] is velvetleaf (Abutilon theophrasti). Conditions: Abutilon theophrasti, pre-emergence, 312 h, evaluated after 13 days; for pest or weed control at 15.625 g/ha: 15.625 g ai/ha; for pest or weed control at 15.625 g/ha / pest or weed control at 250 g/ha: read-out: Velvetleaf damage rating (100=total damage to plant; 0=no damage to plant); for pest or weed control at 62.5 g/ha: 62.5 g ai/ha, 100=total damage to plant, 0=no damage to plant, read-out: plant damage rating, Velvetleaf; for pest or weed control at 250 g/ha: 250 g ai/ha. An outline of the steps:
as §1

SMILES strings stand for the structures.

For the molecule `Cc1c(NC(=O)[C@@H]2C(=O)N(C)C[C@H]2c2ccc(C(F)(F)F)cc2)ccc(F)c1F` (racemic) [Compound 1502], in experiment [1], the pest or weed control at 15.625 g/ha was found to be 0%, the pest or weed control at 62.5 g/ha amounted to 20% and the pest or weed control at 250 g/ha worked out at 70%. In experiment [2], the pest or weed control at 15.625 g/ha amounted to 20%, the pest or weed control at 62.5 g/ha was 60% and the pest or weed control at 250 g/ha was determined as 80%. Besides, in experiment [3], the pest or weed control at 15.625 g/ha was determined as 0%, the pest or weed control at 62.5 g/ha amounted to 0% and the pest or weed control at 250 g/ha was 0%. Besides, in experiment [4], the pest or weed control at 15.625 g/ha amounted to 60%, the pest or weed control at 62.5 g/ha was 90% and the pest or weed control at 250 g/ha is 90%. In the experiment on corn (Zea mays), the plant injury at 15.625 g/ha was determined as 0%, the plant injury at 62.5 g/ha was 0% and the plant injury at 250 g/ha worked out at 50%. Besides, in experiment [5], the pest or weed control at 15.625 g/ha came to 0%, the pest or weed control at 62.5 g/ha came out at 0% and the pest or weed control at 250 g/ha was determined as 10%.
As for `Cc1cscc1NC(=O)[C@@H]1C(=O)N(C)C[C@H]1c1ccc(C(F)(F)F)cc1` (racemic) [Compound 1526], in experiment [1], the pest or weed control at 15.625 g/ha is 0%, the pest or weed control at 62.5 g/ha was 50% and the pest or weed control at 250 g/ha is 70%. In experiment [2], the pest or weed control at 15.625 g/ha was determined as 20%, the pest or weed control at 62.5 g/ha was 60% and the pest or weed control at 250 g/ha is 80%. Further, in experiment [3], the pest or weed control at 15.625 g/ha came out at 10% and the pest or weed control at 250 g/ha is 0%. Besides, in experiment [4], the pest or weed control at 15.625 g/ha amounted to 30%, the pest or weed control at 62.5 g/ha is 50% and the pest or weed control at 250 g/ha worked out at 90%. Moreover, in the experiment on corn (Zea mays), the plant injury at 15.625 g/ha is 0%, the plant injury at 62.5 g/ha turned out to be 0% and the plant injury at 250 g/ha amounted to 10%. Moreover, in experiment [5], the pest or weed control at 15.625 g/ha was found to be 0%, the pest or weed control at 62.5 g/ha was found to be 0% and the pest or weed control at 250 g/ha is 0%.
Regarding `Cc1ccncc1NC(=O)[C@@H]1C(=O)N(C)C[C@H]1c1ccc(C(F)(F)F)cc1` (racemic) [Compound 1505], in experiment [1], the pest or weed control at 15.625 g/ha turned out to be 0%, the pest or weed control at 62.5 g/ha turned out to be 0% and the pest or weed control at 250 g/ha came to 0%. Also, in experiment [2], the pest or weed control at 15.625 g/ha came to 0%, the pest or weed control at 62.5 g/ha came to 0% and the pest or weed control at 250 g/ha was 20%. In addition, in experiment [3], the pest or weed control at 15.625 g/ha worked out at 0% and the pest or weed control at 250 g/ha worked out at 0%. For the same molecule, in experiment [4], the pest or weed control at 15.625 g/ha was determined as 0%, the pest or weed control at 62.5 g/ha was found to be 10% and the pest or weed control at 250 g/ha worked out at 30%. In the experiment with corn (Zea mays), the plant injury at 15.625 g/ha was 0%, the plant injury at 62.5 g/ha amounted to 0% and the plant injury at 250 g/ha came out at 0%. Also, in experiment [5], the pest or weed control at 15.625 g/ha stood at 0%, the pest or weed control at 62.5 g/ha is 0% and the pest or weed control at 250 g/ha came out at 0%.
On to `Cc1cc(NC(=O)[C@@H]2C(=O)N(C)C[C@H]2c2ccc(C(F)(F)F)cc2)n[nH]1` (racemic) [Compound 1532], for which, in experiment [1], the pest or weed control at 15.625 g/ha was determined as 0%, the pest or weed control at 62.5 g/ha came out at 0% and the pest or weed control at 250 g/ha turned out to be 0%. Besides, in experiment [2], the pest or weed control at 15.625 g/ha came to 0%, the pest or weed control at 62.5 g/ha was 30% and the pest or weed control at 250 g/ha was found to be 0%. In experiment [3], the pest or weed control at 15.625 g/ha was determined as 0%, the pest or weed control at 62.5 g/ha is 0% and the pest or weed control at 250 g/ha is 0%. Also, in experiment [4], the pest or weed control at 15.625 g/ha is 100%, the pest or weed control at 62.5 g/ha came to 100% and the pest or weed control at 250 g/ha was 0%. In the experiment with corn (Zea mays), the plant injury at 15.625 g/ha is 0%, the plant injury at 62.5 g/ha stood at 0% and the plant injury at 250 g/ha was found to be 0%. In experiment [5], the pest or weed control at 15.625 g/ha is 0%, the pest or weed control at 62.5 g/ha stood at 0% and the pest or weed control at 250 g/ha was found to be 0%.
As to `CN1C[C@@H](c2ccc(C(F)(F)F)cc2)[C@H](C(=O)Nc2ccc(C(F)(F)F)nc2Cl)C1=O` (racemic) [Compound 1542], in experiment [1], the pest or weed control at 15.625 g/ha came out at 0%, the pest or weed control at 62.5 g/ha came to 0% and the pest or weed control at 250 g/ha turned out to be 0%. In experiment [2], the pest or weed control at 15.625 g/ha was 0%, the pest or weed control at 62.5 g/ha is 10% and the pest or weed control at 250 g/ha came to 10%. For the same molecule, in experiment [3], the pest or weed control at 62.5 g/ha is 0% and the pest or weed control at 250 g/ha was found to be 0%. Besides, in experiment [4], the pest or weed control at 15.625 g/ha came out at 0%, the pest or weed control at 62.5 g/ha is 10% and the pest or weed control at 250 g/ha was 10%. Besides, in the experiment with corn (Zea mays), the plant injury at 15.625 g/ha is 0%, the plant injury at 62.5 g/ha was determined as 0% and the plant injury at 250 g/ha stood at 0%. In experiment [5], the pest or weed control at 15.625 g/ha came out at 0%, the pest or weed control at 62.5 g/ha turned out to be 0% and the pest or weed control at 250 g/ha came to 0%.
In the case of `CN1C[C@@H](c2ccc(C(F)(F)F)cc2)[C@H](C(=O)Nc2ncc(Br)cn2)C1=O` (racemic) [Compound 1514], the pest or weed control at 15.625 g/ha in experiment [1], in experiment [2], in experiment [3], in experiment [4] and in experiment [5] was 0% throughout. Further, the pest or weed control at 62.5 g/ha in experiment [1], in experiment [2], in experiment [3], in experiment [4] and in experiment [5] was 0% in each case. The pest or weed control at 250 g/ha in experiment [1], in experiment [2], in experiment [3], in experiment [4] and in experiment [5] was 0% in each case. Besides, the plant injury at 15.625 g/ha in the experiment on corn (Zea mays) was determined as 0%. Also, the plant injury at 62.5 g/ha in the experiment with corn (Zea mays) stood at 0%. Moreover, the plant injury at 250 g/ha in the experiment on corn (Zea mays) is 0%.
For the molecule `CN1C[C@H](c2ccc3occc3c2)[C@@H](C(=O)Nc2cccc(F)c2F)C1=O` (racemic) [Compound 1500], in experiment [1], the pest or weed control at 15.625 g/ha is 0%, the pest or weed control at 62.5 g/ha was 0% and the pest or weed control at 250 g/ha was 80%. In experiment [2], the pest or weed control at 15.625 g/ha was 30%, the pest or weed control at 62.5 g/ha was determined as 90% and the pest or weed control at 250 g/ha is 90%. In experiment [3], the pest or weed control at 15.625 g/ha came out at 0% and the pest or weed control at 250 g/ha amounted to 20%. Besides, in experiment [4], the pest or weed control at 15.625 g/ha stood at 60%, the pest or weed control at 62.5 g/ha came to 80% and the pest or weed control at 250 g/ha was 80%. For the same molecule, in the experiment with corn (Zea mays), the plant injury at 15.625 g/ha worked out at 0%, the plant injury at 62.5 g/ha turned out to be 0% and the plant injury at 250 g/ha amounted to 30%. Also, in experiment [5], the pest or weed control at 15.625 g/ha turned out to be 0%, the pest or weed control at 62.5 g/ha was 0% and the pest or weed control at 250 g/ha came to 20%.
